Experimental data published in patent US4010191A, “Acyl derivatives of substituted bis-arylalkylamino compounds” (Deutsche Gold- und Silber-Scheideanstalt vormals Roessler, priority 1969, dated 1977).

Key:
[1] = tested on: detached tracheas obtained from guinea pigs; test: Broncholytic action on detached tracheas (histamine spasm); parameters: species or system guinea pig; conditions: comparative tests
heart = test: Heart and circulatory action, comparative tests with papaverine (Langendorff hearts / dogs); parameters: species or system guinea pig; dog
Protocol: The compounds of the invention were tested in detached guinea pig hearts by the method of Langendorff (Pfluger's Arch. 61 (1895) 291) in respect of the coronary flow, the inotropic action and the heart frequency. Also there were tested in anaesthetized dogs which had been subjected to a thoracostomy.
The significant parameters of the heart and circulatory activity in this case were determined by means of electromagnetic flux measurement and pressure measurement in the interior of the heart ventricle.

**Q.** Which “duration of action compared to the compounds of the invention” value [1] does the source give for `COc1ccc(Cc2nccc3cc(OC)c(OC)cc23)cc1OC` [papaverine] here?
**A.** substantially shorter duration

**Q.** And the “inotropy compared with the compounds of the invention” value (heart)?
**A.** smaller inotropy

**Q.** What about the “duration of action compared with the compounds of the invention” value (heart; heart and circulatory action) of the same molecule?
**A.** substantially shorter duration of action
